A short description of one data set: PPB, mouse. In kind it is in vitro ADME. To be noted: plasma.
In data set [1] the target is T1, BRD9 (Homo sapiens, UniProt Q9H8M2).
T1 sequence (Q9H8M2 1-597): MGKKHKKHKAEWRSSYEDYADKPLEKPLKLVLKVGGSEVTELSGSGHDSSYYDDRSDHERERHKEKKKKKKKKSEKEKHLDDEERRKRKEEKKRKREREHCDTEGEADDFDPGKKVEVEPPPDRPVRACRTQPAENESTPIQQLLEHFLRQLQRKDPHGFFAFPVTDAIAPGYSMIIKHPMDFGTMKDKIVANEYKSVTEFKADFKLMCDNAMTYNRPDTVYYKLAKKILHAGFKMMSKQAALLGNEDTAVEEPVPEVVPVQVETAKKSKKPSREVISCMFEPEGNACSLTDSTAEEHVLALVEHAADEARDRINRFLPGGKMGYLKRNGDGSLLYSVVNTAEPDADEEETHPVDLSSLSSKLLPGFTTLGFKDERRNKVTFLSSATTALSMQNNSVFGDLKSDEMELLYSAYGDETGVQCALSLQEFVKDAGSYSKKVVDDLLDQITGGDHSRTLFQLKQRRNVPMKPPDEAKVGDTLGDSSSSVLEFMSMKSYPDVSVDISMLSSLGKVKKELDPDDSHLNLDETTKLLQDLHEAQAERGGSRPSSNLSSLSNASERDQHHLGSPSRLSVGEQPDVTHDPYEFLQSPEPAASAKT
The data set can be described thus: Western blot, in-vivo BRD9 degradation in Yamato-SS tumors. Also noted: inoculated subcutaneously into BALB/c nude mice at the right flank for tumor development; from tissue; host or cells: Yamato-SS xenograft tumours in BALB/c nude mice; species or system BALB/c nude mice. As to the method:
Yamato-SS cells were maintained in vitro until exponential growth phase and inoculated subcutaneously into BALB/c nude mice at the right flank for tumor development. Mice were treated with single dose of Compound 172 at 10 or 75 mg/kg PO. Tumor were collected at indicated time points and snap frozen until lysis. Tumors were ground and lysed in RIPA Buffer containing 2× protease/phosphatase inhibitor using a freeze grinder at 50 Hz for 5 minutes. Protein concentrations were determined by Pierce™ BCA Protein Assay Kit. Samples were diluted to appropriate concentrations and run in a western blot.
Yamato-SS were maintained in vitro until exponential growth phase and inoculated subcutaneously into BALB/c nude mice at the right flank. Mice were treated with single dose of Compound 176 at 3, 12 or 50 mg/kg PO. Tumor were collected at indicated time points and snap frozen until lysis. Tumors were ground and lysed in RIPA Buffer containing 2× protease/phosphatase inhibitor using a freeze grinder at 50 Hz for 5 minutes. Protein concentrations were determined by Pierce™ BCA Protein Assay Kit. Samples were diluted to appropriate concentrations and run in a western blot.
FIG. 20 is a histogram reflecting quantitated bands from FIG. 19. The x axis is time measured in hours and the y axis is BRD9 remaining normalized to vehicle and vinculin measured in percentage.
On the technique in general: A western blot detects proteins with antibodies after separation by electrophoresis.

The next data set is described as follows: PPB, rat. In kind it is in vitro ADME. To be noted: plasma.
The next data set can be described thus: IV PK, rat. It counts as in vivo. As to conditions: for IV PK AUC(0-last) / IV PK Cmax: dose-normalised; for clearance / Vd / half-life: in vivo; for clearance: read-out: IV PK CL; for Vd: read-out: IV PK Vdss; for half-life: read-out: IV PK t1/2 (converted).
The next data set in a line: Plasma stability, mouse. It counts as in vitro ADME.
Another data set has as its system Yamato-SS cells. The data set can be described thus: Confluence (growth) over time in Yamato-SS cells. It counts as cell-based, human.
Data set [2] deals with T1, BRD9. The data set can be described thus: HiBiT BRD9 degradation assay in 293T.166 (BRD9-HiBiT) cells. It counts as cell-based. Also noted: endogenously expressing BRD9 with HiBiT fusion tag via CRISPR; host or cells: 293T.166 (BRD9-HiBiT), also expressing LgBiT ectopically. An outline of the steps: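 293T.166 cells carrying endogenous CRISPR BRD9-HiBiT and expressing LgBiT treated 2 h at 37° C. with compounds, 11-point half-log titration from 10 μM in duplicate. Remaining BRD9 measured as lytic HiBiT luminescence; untreated cells as negative control, no-reagent wells as positive control.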
A general note: HiBiT is a short tag that completes a luciferase, so light tracks the accessible tagged protein.

The nature of data set [3]: Hepatocyte stability, dog. It counts as in vitro ADME. To be noted: dog hepatocytes; read-out: Hepatocyte stability, Clint scaled ws.
The next data set is described as follows: Plasma stability, dog. In kind it is in vitro ADME.
Another data set is described as follows: PO PK, mouse. As to conditions: for PO PK AUC(0-last) / PO PK Cmax: dose-normalised; for bioavailability / half-life: in vivo; for bioavailability: read-out: PO PK F%; for half-life: read-out: PO PK t1/2 (converted). It counts as in vivo.
The mark [4] stands for this setting: Table 1, 293T.166 cells, 2.0 hours, class symbols, read-out: HiBiT-Degradation 293T.166 BRD9 2.0 hours (DC50).

Read-outs that look alike come from different tables or passages of the source. Where only a bound is given, the exact number is not on record here.

As to `COc1cc(-c2cn(C)c(=O)c(C)c2C)cc(OC)c1CN1CCC(N2CCN(c3ccc(NC4CCC(=O)NC4=O)cc3F)CC2)C(F)(F)C1` (stereo not drawn) [Compound 172, 3-[4-[4-[1-[[2,6-dimethoxy-4-(1,4,5-trimethyl-6-oxo-3-pyridyl)phenyl]methyl]-3,3-difluoro-4-piperidyl]piperazin-1-yl]-3-fluoro-anilino]piperidine-2,6-dione], the unbound share (fraction unbound) – broadly, free concentration divided by total concentration – in the data set “PPB, mouse” was 0.018. The “in-vivo BRD9 degradation, western blot” value at BRD9 [1] (single dose 10 or 75 mg/kg PO, FIG. 12, not BRD7) is listed as “dose dependent in-vivo BRD9 degradation”. The compound further had a free fraction (fraction unbound) in the data set “PPB, rat” of 0.083. For the same compound, in “IV PK, rat”, the “IV PK AUC(0-last)” value is 1230 (h*ng/mL)/(mg/kg), the “IV PK Cmax” value was 517 [ng/mL]/(mg/kg), the clearance turned out to be 16 mL/min/kg and the Vd came out at 7.9 L/kg. In addition, the half-life in “IV PK, rat” was 9.5 h. In addition, the “Stability (plasma) % remaining @3 hrs” value in the data set “Plasma stability, mouse” stood at 90.3%. For the same compound, the “confluence as a percentage of control over time” value in the data set with Yamato-SS cells (Yamato-SS cells, FIG. 4) is on record as “growth inhibition”. In addition, the “BRD9 degradation (2 h), Kendo 17 h, percent” value at BRD9 [2] (2 h) is recorded as 5%. In addition, at BRD9 [2] (2 h, read-out: BRD9 degradation (2 h), Kendo 17 h, concentration), the DC50 amounted to 3.4 nM. The DC50 at BRD9 [2] (setting [4]) is under 100 nM. Moreover, in data set [3], the CLint scaled (usually a measure of how fast metabolising enzymes remove a compound, apart from limits set by blood flow) was 2 mL/min/kg. In addition, the “Stability (plasma) % remaining @3 hrs” value in “Plasma stability, dog” is given as 80.2%. Also, in the data set “PO PK, mouse”, the “PO PK AUC(0-last)” value is recorded as 5947 (h*ng/mL)/(mg/kg), the “PO PK Cmax” value is on record as 844 (ng/mL)/(mg/kg), the bioavailability amounted to 122% and the half-life was 3.3 h.
`COc1cc(-c2cn(C)c(=O)c(C)c2C)cc(OC)c1CN1CCC(N2CCN(c3ccc(NC4CCC(=O)NC4=O)cc3F)CC2)C(F)(F)C1` (single isomer, unassigned) [Compound 176, 3-[4-[4-[1-[[2,6-dimethoxy-4-(1,4,5-trimethyl-6-oxo-3-pyridyl)phenyl]methyl]-3,3-difluoro-4-piperidyl]piperazin-1-yl]-3-fluoro-anilino]piperidine-2,6-dione]: the fraction unbound in the data set “PPB, mouse” is 0.034. For the same compound, the “in-vivo BRD9 degradation, western blot” value on BRD9 [1] (single dose 3, 12 or 50 mg/kg PO, 1, 4, 12, 24, 48 hr, FIG. 19) is “time dependent in-vivo BRD9 degradation”. In the data set “PPB, rat”, this compound gave a fraction unbound of 0.098. In addition, in “IV PK, rat”, the “IV PK AUC(0-last)” value is recorded as 771 (h*ng/mL)/(mg/kg), the “IV PK Cmax” value was 439 [ng/mL]/(mg/kg), the clearance amounted to 21.6 mL/min/kg and the Vd turned out to be 6.7 L/kg. The half-life in the data set “IV PK, rat” was 4 h. The “Stability (plasma) % remaining @3 hrs” value in the data set “Plasma stability, mouse” amounted to 85%. Further, the “confluence as a percentage of control, single dose long term growth evaluation” value with Yamato-SS cells (BAF perturbed Yamato-SS model, various concentrations, FIG. 16) was “selective growth inhibition”. The DC50 at BRD9 [2] (setting [4]) was under 100 nM. The CLint scaled in data set [3] is 8.6 mL/min/kg. In addition, the “Stability (plasma) % remaining @3 hrs” value in “Plasma stability, dog” came out at 100%. Moreover, in “PO PK, mouse”, the “PO PK AUC(0-last)” value was 1999 (h*ng/mL)/(mg/kg), the “PO PK Cmax” value is recorded as 346 (ng/mL)/(mg/kg), the bioavailability was 74% and the half-life was 3.5 h.

For the origin of these results see patent US11691972B2, “Compounds for targeted degradation of BRD9” (C4 Therapeutics, Inc., priority 2020, dated 2023).
